Laboratory results as given in US20240132431A1, “METHOD FOR ALKYLATING ACIDIC FUNCTIONAL GROUP” (Chugai Seiyaku Kabushiki Kaisha, priority 2021, published 2024).

Biological target: T1, Bcl-2 protein (Recombinant Human Bcl-2 Protein) (Homo sapiens, UniProt P10415)
T1 construct: purchased Novus NBP2-34889
Test: Binding evaluation of mixture library compounds to Bcl-2 using AS-MS (affinity selection mass spectrometry)
Outline: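 Bcl-2 binding is scored from LC/MS signal retained with protein through gel-filtration spin columns, normalised to unfiltered and protein-free controls. Incubation: 20 μM protein, […] per compound, 1 h, 23° C.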

T1 sequence (P10415 whole entry): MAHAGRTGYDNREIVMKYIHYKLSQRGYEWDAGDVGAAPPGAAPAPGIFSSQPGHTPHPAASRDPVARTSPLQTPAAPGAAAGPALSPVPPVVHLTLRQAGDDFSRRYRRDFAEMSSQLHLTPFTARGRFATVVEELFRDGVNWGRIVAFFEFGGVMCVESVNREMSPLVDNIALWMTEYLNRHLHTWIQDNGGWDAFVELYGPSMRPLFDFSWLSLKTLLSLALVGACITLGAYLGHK

Row | SMILES | ASMS ratio (%) (n = 1) | ASMS ratio (%) (n = 2)
1 | CCOc1cccc(-c2ccccc2CCC(=O)N2CCN(c3ccc(C(=O)NS(=O)(=O)c4ccc(NCCSc5ccccc5)c(C(F)(F)F)c4)nn3)CC2)c1 [B2R011-01, 6-[4-[3-[2-(3-Ethoxyphenyl)phenyl]propanoyl]piperazin-1-yl]-N-[4-(2-phenylsulfanylethylamino)-3-(trifluoromethyl)phenyl]sulfonylpyridazine-3-carboxamide] | 17.7% | −1.3%
2 | CCOc1cncc(-c2ccccc2CCC(=O)N2CCN(c3ccc(C(=O)NS(=O)(=O)c4ccc(NCCSc5ccccc5)c(C(F)(F)F)c4)nn3)CC2)c1 [B2R012-01, 6-[4-[3-[2-(5-Ethoxypyridin-3-yl)phenyl]propanoyl]piperazin-1-yl]-N-[4-(2-phenylsulfanylethylamino)-3-(trifluoromethyl)phenyl]sulfonylpyridazine-3-carboxamide] | 15.8% | 13.5%
3 | CCOc1cccc(-c2ccc(C(=O)N3CCN(c4ccc(C(=O)NS(=O)(=O)c5ccc(NCCSc6ccccc6)c(C(F)(F)F)c5)nn4)CC3)c3ccccc23)c1 [B2R013-01, 6-[4-[4-(3-Ethoxyphenyl)naphthalene-1-carbonyl]piperazin-1-yl]-N-[4-(2-phenylsulfanylethylamino)-3-(trifluoromethyl)phenyl]sulfonylpyridazine-3-carboxamide] | 7.5% | 7.7%
4 | CCOc1cncc(-c2ccc(C(=O)N3CCN(c4ccc(C(=O)NS(=O)(=O)c5ccc(NCCSc6ccccc6)c(C(F)(F)F)c5)nn4)CC3)c3ccccc23)c1 [B2R014-01, 6-[4-[4-(5-Ethoxypyridin-3-yl)naphthalene-1-carbonyl]piperazin-1-yl]-N-[4-(2-phenylsulfanylethylamino)-3-(trifluoromethyl)phenyl]sulfonylpyridazine-3-carboxamide] | 18.6% | 15.1%
5 | CCOc1cccc(-c2cc(C(=O)N3CCN(c4ccc(C(=O)NS(=O)(=O)c5ccc(NCCSc6ccccc6)c(C(F)(F)F)c5)nn4)CC3)cc(C(C)(C)C)c2)c1 [B2R015-01, 6-[4-[3-tert-Butyl-5-(3-ethoxyphenyl)benzoyl]piperazin-1-yl]-N-[4-(2-phenylsulfanylethylamino)-3-(trifluoromethyl)phenyl]sulfonylpyridazine-3-carboxamide] | 9.7% | 0.0%
6 | CCOc1cncc(-c2cc(C(=O)N3CCN(c4ccc(C(=O)NS(=O)(=O)c5ccc(NCCSc6ccccc6)c(C(F)(F)F)c5)nn4)CC3)cc(C(C)(C)C)c2)c1 [B2R016-01, 6-[4-[3-tert-Butyl-5-(5-ethoxypyridin-3-yl)benzoyl]piperazin-1-yl]-N-[4-(2-phenylsulfanylethylamino)-3-(trifluoromethyl)phenyl]sulfonylpyridazine-3-carboxamide] | 9.1% | 2.7%
7 | CCOc1cccc(-c2cc(C(=O)N3CCN(c4ccc(C(=O)NS(=O)(=O)c5ccc(NCCSc6ccccc6)c(C(F)(F)F)c5)nn4)CC3)cc(C(F)(F)F)c2)c1 [B2R017-01, 6-[4-[3-(3-ethoxyphenyl)-5-(trifluoromethyl)benzoyl]piperazin-1-yl]-N-[4-(2-phenylsulfanylethylamino)-3-(trifluoromethyl)phenyl]sulfonylpyridazine-3-carboxamide] | 32.9% | 27.2%
8 | CCOc1cncc(-c2cc(C(=O)N3CCN(c4ccc(C(=O)NS(=O)(=O)c5ccc(NCCSc6ccccc6)c(C(F)(F)F)c5)nn4)CC3)cc(C(F)(F)F)c2)c1 [B2R018-01, 6-[4-[3-(5-Ethoxypyridin-3-yl)-5-(trifluoromethyl)benzoyl]piperazin-1-yl]-N-[4-(2-phenylsulfanylethylamino)-3-(trifluoromethyl)phenyl]sulfonylpyridazine-3-carboxamide] | 5.1% | 7.8%
9 | CCOc1cccc(-c2cnn(-c3cc(C(=O)N4CCN(c5ccc(C(=O)NS(=O)(=O)c6ccc(NCCSc7ccccc7)c(C(F)(F)F)c6)nn5)CC4)cc(C(F)(F)F)c3)c2)c1 [B2R021-01, 6-[4-[3-[4-(3-Ethoxyphenyl)pyrazol-1-yl]-5-(trifluoromethyl)benzoyl]piperazin-1-yl]-N-[4-(2-phenylsulfanylethylamino)-3-(trifluoromethyl)phenyl]sulfonylpyridazine-3-carboxamide] | 13.0% | 0.0%
10 | CCOc1cncc(-c2cnn(-c3cc(C(=O)N4CCN(c5ccc(C(=O)NS(=O)(=O)c6ccc(NCCSc7ccccc7)c(C(F)(F)F)c6)nn5)CC4)cc(C(F)(F)F)c3)c2)c1 [B2R022-01, 6-[4-[3-[4-(5-Ethoxypyridin-3-yl)pyrazol-1-yl]-5-(trifluoromethyl)benzoyl]piperazin-1-yl]-N-[4-(2-phenylsulfanylethylamino)-3-(trifluoromethyl)phenyl]sulfonylpyridazine-3-carboxamide] | 14.5% | 15.8%
11 | CCOc1cccc(-c2csc(C(=O)N3CCN(c4ccc(C(=O)NS(=O)(=O)c5ccc(NCCSc6ccccc6)c(C(F)(F)F)c5)cc4)CC3)c2)c1 [B2R023-01, 4-[4-[4-(3-Ethoxyphenyl)thiophene-2-carbonyl]piperazin-1-yl]-N-[4-(2-phenylsulfanylethylamino)-3-(trifluoromethyl)phenyl]sulfonylbenzamide] | 0.0% | −15.5%
12 | CCOc1cncc(-c2csc(C(=O)N3CCN(c4ccc(C(=O)NS(=O)(=O)c5ccc(NCCSc6ccccc6)c(C(F)(F)F)c5)cc4)CC3)c2)c1 [B2R024-01, 4-[4-[4-(5-Ethoxypyridin-3-yl)thiophene-2-carbonyl]piperazin-1-yl]-N-[4-(2-phenylsulfanylethylamino)-3-(trifluoromethyl)phenyl]sulfonylbenzamide] | 0.0% | −1.2%
13 | CCOc1cccc(-c2ccc(C(=O)N3CCN(c4ccc(C(=O)NS(=O)(=O)c5ccc(NCCSc6ccccc6)c(C(F)(F)F)c5)cc4)CC3)cc2C)c1 [B2R025-01, 4-[4-[4-(3-Ethoxyphenyl)-3-methylbenzoyl]piperazin-1-yl]-N-[4-(2-phenylsulfanylethylamino)-3-(trifluoromethyl)phenyl]sulfonylbenzamide] | −1.0% | −2.4%
14 | CCOc1cncc(-c2ccc(C(=O)N3CCN(c4ccc(C(=O)NS(=O)(=O)c5ccc(NCCSc6ccccc6)c(C(F)(F)F)c5)cc4)CC3)cc2C)c1 [B2R026-01, 4-[4-[4-(5-Ethoxypyridin-3-yl)-3-methylbenzoyl]piperazin-1-yl]-N-[4-(2-phenylsulfanylethylamino)-3-(trifluoromethyl)phenyl]sulfonylbenzamide] | 1.7% | −4.6%
15 | CCOc1cccc(-c2ccc(C(=O)N3CCN(c4ccc(C(=O)NS(=O)(=O)c5ccc(NCCSc6ccccc6)c(C(F)(F)F)c5)cc4)CC3)cc2F)c1 [B2R027-01, 4-[4-[4-(3-Ethoxyphenyl)-3-fluorobenzoyl]piperazin-1-yl]-N-[4-(2-phenylsulfanylethylamino)-3-(trifluoromethyl)phenyl]sulfonylbenzamide] | −3.7% | 1.2%
16 | CCOc1cncc(-c2ccc(C(=O)N3CCN(c4ccc(C(=O)NS(=O)(=O)c5ccc(NCCSc6ccccc6)c(C(F)(F)F)c5)cc4)CC3)cc2F)c1 [B2R028-01, 4-[4-[4-(5-Ethoxypyridin-3-yl)-3-fluorobenzoyl]piperazin-1-yl]-N-[4-(2-phenylsulfanylethylamino)-3-(trifluoromethyl)phenyl]sulfonylbenzamide] | 4.1% | −0.5%
17 | CCOc1cccc(C#Cc2ccccc2C(=O)N2CCN(c3ccc(C(=O)NS(=O)(=O)c4ccc(NCCSc5ccccc5)c(C(F)(F)F)c4)cc3)CC2)c1 [B2R029-01, 4-[4-[2-[2-(3-Ethoxyphenyl)ethynyl]benzoyl]piperazin-1-yl]-N-[4-(2-phenylsulfanylethylamino)-3-(trifluoromethyl)phenyl]sulfonylbenzamide] | – | 0.0%
18 | CCOc1cncc(C#Cc2ccccc2C(=O)N2CCN(c3ccc(C(=O)NS(=O)(=O)c4ccc(NCCSc5ccccc5)c(C(F)(F)F)c4)cc3)CC2)c1 [B2R030-01, 4-[4-[2-[2-(5-Ethoxypyridin-3-yl)ethynyl]benzoyl]piperazin-1-yl]-N-[4-(2-phenylsulfanylethylamino)-3-(trifluoromethyl)phenyl]sulfonylbenzamide] | 0.0% | 4.8%
19 | CCOc1cccc(C#Cc2cncc(C(=O)N3CCN(c4ccc(C(=O)NS(=O)(=O)c5ccc(NCCSc6ccccc6)c(C(F)(F)F)c5)cc4)CC3)c2)c1 [B2R031-01, 4-[4-[5-[2-(3-Ethoxyphenyl)ethynyl]pyridine-3-carbonyl]piperazin-1-yl]-N-[4-(2-phenylsulfanylethylamino)-3-(trifluoromethyl)phenyl]sulfonylbenzamide] | 0.0% | 4.8%
20 | CCOc1cncc(C#Cc2cncc(C(=O)N3CCN(c4ccc(C(=O)NS(=O)(=O)c5ccc(NCCSc6ccccc6)c(C(F)(F)F)c5)cc4)CC3)c2)c1 [B2R032-01, 4-[4-[5-[2-(5-Ethoxypyridin-3-yl)ethynyl]pyridine-3-carbonyl]piperazin-1-yl]-N-[4-(2-phenylsulfanylethylamino)-3-(trifluoromethyl)phenyl]sulfonylbenzamide] | 6.4% | 0.0%
21 | CCOc1cccc(-c2ccccc2CCC(=O)N2CCN(c3ccc(C(=O)NS(=O)(=O)c4ccc(NCCSc5ccccc5)c(C(F)(F)F)c4)cc3)CC2)c1 [B2R033-01, 4-[4-[3-[2-(3-Ethoxyphenyl)phenyl]propanoyl]piperazin-1-yl]-N-[4-(2-phenylsulfanylethylamino)-3-(trifluoromethyl)phenyl]sulfonylbenzamide] | 3.6% | −6.6%
